assay: recombinant barcode read abundance after kanamycin selection (control-corrected) (log10(CPM+1)); higher = more efficient recombination; sequences stand for … in AGTGCAGAGAAAATCGGCCAGTTTTCTCTGCCTGCAGTCCGCATGCCGT…AGATTTATGCAGCGGACTGCCTTTCTCCCAAAGTGATAAACCGGACAGTATCATGGACCGGTTTTCCCGGTAATCCGTATTTGCAAGGTTGGTTTCACT; site = the 11-nt target
How it was run: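 Oligos holding a promoter, target, barcode and the J23119-driven first 104 bases of the bridge RNA were Gibson-cloned into a vector that supplied the other 73 bp plus a T7-inducible recombinase. This library was co-electroporated with a donor plasmid into E. coli. Two replicates went on chloramphenicol/ampicillin LB agar (control) and two on chloramphenicol/ampicillin/kanamycin with 0.1 mM IPTG. Recombination efficiency is read from averaged, control-corrected barcode counts per million at recombinant junctions, reported as log10(CPM+1).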
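Further: IS621 recombinase and bridge RNA in Escherichia coli cells.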

Sequence	recombinant barcode read abundance (log10)
CAGTTGGCTTGGGTTCTAACCTGTTGCCT (site CAGTTAGCTAG)	0.04
CAGTTGGCTTGGGTTCTAACCTGTTGCCT (site CAGTTCGCTAG)	0.0864
CAGTTGGCTTGGGTTCTAACCTGTTGCCT (site CAGTTGGCTAG)	1.01
CAGTTGGCTTGGGTTCTAACCTGTTGCCT (site CAGTTTGCTAG)	0.232
CATAGACCTTGGGTTCTAACCTGTTGCAT (site CATAGACCTAT)	1.82
CATAGACCTTGGGTTCTAACCTGTTGCAT (site CATAGCCCTAT)	0.0625
CATAGACCTTGGGTTCTAACCTGTTGCAT (site CATAGGCCTAT)	0.0233
CATAGACCTTGGGTTCTAACCTGTTGCAT (site CATAGTCCTAT)	0.0411
CATAGACCTTGGGTTCTAACCTGTTGCCT (site CATAGACCTAG)	1.45
CATAGACCTTGGGTTCTAACCTGTTGCCT (site GATAGACCTAG)	0.00901
CATAGATCTTGGGTTCTAACCTGTTGCTT (site CAAAGATCTAA)	0.271
CATAGATCTTGGGTTCTAACCTGTTGCTT (site CACAGATCTAA)	0.385
CATAGATCTTGGGTTCTAACCTGTTGCTT (site CAGAGATCTAA)	0.0253
CATAGATCTTGGGTTCTAACCTGTTGCTT (site CATAGATCTAA)	0.119
CATAGCCCTTGGGTTCTAACCTGTTGCAT (site CATAGACCTAT)	0.176
CATAGCCCTTGGGTTCTAACCTGTTGCAT (site CATAGCCCTAT)	1.11
CATAGCCCTTGGGTTCTAACCTGTTGCAT (site CATAGGCCTAT)	0.117
CATAGCCCTTGGGTTCTAACCTGTTGCAT (site CATAGTCCTAT)	0.0192
CATATCCCTTGGGTTCTAACCTGTTGCAT (site CATATCCCTAT)	1.33
CATATCCCTTGGGTTCTAACCTGTTGCAT (site CTAATCCCTAT)	0.03
CATATGACTTGGGTTCTAACCTGTTGCCT (site CATATGACTAG)	1.2
CATATGACTTGGGTTCTAACCTGTTGCCT (site TCAGGAGCTTA)	0.126

Sequence	recombinant barcode read abundance (log10)
CATCATTCTTGGGTTCTAACCTGTTGCCT (site CATAATTCTAG)	0.144
CATCATTCTTGGGTTCTAACCTGTTGCCT (site CATCATTCTAG)	0.215
CATCATTCTTGGGTTCTAACCTGTTGCCT (site CATGATTCTAG)	0.118
CATCATTCTTGGGTTCTAACCTGTTGCCT (site CATTATTCTAG)	0
CATCCGACTTGGGTTCTAACCTGTTGCCT (site CATCCGACTAG)	0.92
CATCCGACTTGGGTTCTAACCTGTTGCCT (site CATCCGCCTAG)	0.163
CATCCGACTTGGGTTCTAACCTGTTGCCT (site CATCCGGCTAG)	0.33
CATCCGACTTGGGTTCTAACCTGTTGCCT (site CATCCGTCTAG)	0.0237
CATCCTCCTTGGGTTCTAACCTGTTGCTG (site CATCCTACTCC)	0.463
CATCCTCCTTGGGTTCTAACCTGTTGCTG (site CATCCTCCTCA)	0.666
CATCGGACTTGGGTTCTAACCTGTTGCAA (site CATCGGACTTT)	1.14
CATCGGACTTGGGTTCTAACCTGTTGCAA (site GGCTAACCTAG)	0.336
CATGACACTTGGGTTCTAACCTGTTGCCT (site CATGACACTAG)	2.45
CATGACACTTGGGTTCTAACCTGTTGCCT (site CATGCCGCTAG)	0.0486
CATGCTACTTGGGTTCTAACCTGTTGCTC (site CATGCGACTCA)	0.191
CATGCTACTTGGGTTCTAACCTGTTGCTC (site CATGCTACTGA)	0.627
CATGTGCCTTGGGTTCTAACCTGTTGCCT (site CATGTGCCTAG)	1.89
CATGTGCCTTGGGTTCTAACCTGTTGCCT (site TATGCGCCTAG)	0.329
CATTATCCTTGGGTTCTAACCTGTTGCGT (site CATTATCCTAC)	1.59
CATTATCCTTGGGTTCTAACCTGTTGCGT (site CATTGTCCTAC)	0.0752
CATTCCTCTTGGGTTCTAACCTGTTGCCT (site CATTCCTCTAG)	0.0779
CATTCCTCTTGGGTTCTAACCTGTTGCCT (site CCTTCCTCTAG)	0.122

Sequence	recombinant barcode read abundance (log10)
CATTCCTCTTGGGTTCTAACCTGTTGCCT (site CGTTCCTCTAG)	0.0677
CATTCCTCTTGGGTTCTAACCTGTTGCCT (site CTTTCCTCTAG)	0.0613
CATTCGCCTTGGGTTCTAACCTGTTGCGT (site CATTCGCCTAC)	0.329
CATTCGCCTTGGGTTCTAACCTGTTGCGT (site TGGCTAGCTGT)	0.138
CATTGCCCTTGGGTTCTAACCTGTTGCCT (site CATTGCCCTAG)	0.234
CATTGCCCTTGGGTTCTAACCTGTTGCCT (site CCTTGCCCTAG)	0.2
CATTGCCCTTGGGTTCTAACCTGTTGCCT (site CGTTGCCCTAG)	0.242
CATTGCCCTTGGGTTCTAACCTGTTGCCT (site CTTTGCCCTAG)	0.0205
CATTGGACTTGGGTTCTAACCTGTTGCTT (site AATTGGACTAA)	0.222
CATTGGACTTGGGTTCTAACCTGTTGCTT (site CATTGGACTAA)	0.371
CATTGGACTTGGGTTCTAACCTGTTGCTT (site GATTGGACTAA)	0.023
CATTGGACTTGGGTTCTAACCTGTTGCTT (site TATTGGACTAA)	0.111
CATTGTACTTGGGTTCTAACCTGTTGCTA (site CATCGGACTTA)	0.104
CATTGTACTTGGGTTCTAACCTGTTGCTA (site CATTGTACTTA)	0.457
CCAAAGACTTGGGTTCTAACCTGTTGCAT (site CCAAAGACTAT)	0.523
CCAAAGACTTGGGTTCTAACCTGTTGCAT (site CTAAAGACTGT)	0.334
CCAACCGCTTGGGTTCTAACCTGTTGCCT (site CAAACCGCTAG)	0.0169
CCAACCGCTTGGGTTCTAACCTGTTGCCT (site CCAACCGCTAG)	0.423
CCAACCGCTTGGGTTCTAACCTGTTGCCT (site CGAACCGCTAG)	0.043
CCAACCGCTTGGGTTCTAACCTGTTGCCT (site CTAACCGCTAG)	0.0644
CCAAGCCCTTGGGTTCTAACCTGTTGCCT (site CCAAGCACTAG)	0.202
CCAAGCCCTTGGGTTCTAACCTGTTGCCT (site CCAAGCCCTAG)	0.142

Sequence	recombinant barcode read abundance (log10)
CCAAGCCCTTGGGTTCTAACCTGTTGCCT (site CCAAGCGCTAG)	0.0593
CCAAGCCCTTGGGTTCTAACCTGTTGCCT (site CCAAGCTCTAG)	0.0835
CCAAGGACTTGGGTTCTAACCTGTTGCCT (site CCAAGGACTAG)	0.348
CCAAGGACTTGGGTTCTAACCTGTTGCCT (site CCACGGACTAG)	0.0394
CCAAGGACTTGGGTTCTAACCTGTTGCCT (site CCAGGGACTAG)	0.47
CCAAGGACTTGGGTTCTAACCTGTTGCCT (site CCATGGACTAG)	0.0382
CCAAGGGCTTGGGTTCTAACCTGTTGCTG (site CCAAGGGCTCA)	1.31
CCAAGGGCTTGGGTTCTAACCTGTTGCTG (site CCAAGGGCTCC)	0.136
CCAAGGGCTTGGGTTCTAACCTGTTGCTG (site CCAAGGGCTCG)	0.0611
CCAAGGGCTTGGGTTCTAACCTGTTGCTG (site CCAAGGGCTCT)	0.727
CCACAGTCTTGGGTTCTAACCTGTTGCCT (site CCACAGTCTAG)	1.44
CCACAGTCTTGGGTTCTAACCTGTTGCCT (site CCACCGTCTAG)	0.117
CCACAGTCTTGGGTTCTAACCTGTTGCCT (site CCACGGTCTAG)	0.169
CCACAGTCTTGGGTTCTAACCTGTTGCCT (site CCACTGTCTAG)	0.0628
CCACGAGCTTGGGTTCTAACCTGTTGCGG (site CCACGAGCTCC)	1.4
CCACGAGCTTGGGTTCTAACCTGTTGCGG (site CGACGAGCTCC)	0.148
CCACGGCCTTGGGTTCTAACCTGTTGCAT (site CCACGGCCTAT)	1.21
CCACGGCCTTGGGTTCTAACCTGTTGCAT (site CCTCGGCCTAT)	0
CCACTACCTTGGGTTCTAACCTGTTGCCT (site CCACTACCTAG)	0.253
CCACTACCTTGGGTTCTAACCTGTTGCCT (site CCACTCCCTAG)	0.0236
